Assay results: ChEMBL document CHEMBL4507307 (2021); call rule not given here

Tests used:
[1] = molecular target: 5-hydroxytryptamine receptor 1B (Homo sapiens, UniProt P28222); assay: GPCRScan assay: inhibition of 5-HT1B; design: radioligand conc. used [nm] 0.6 – 1.5, parental cells stable HEK
[2] = molecular target: Alpha-2C adrenergic receptor (Homo sapiens, UniProt P18825); assay: GPCRScan assay: inhibition of Alpha2C; design: radioligand conc. used [nm] 0.5 – 1.0, parental cells stable MDCK
D(1A) dopamine receptor = D(1A) dopamine receptor (Homo sapiens, UniProt P21728); assay: GPCRScan assay: inhibition of D1; design: radioligand conc. used [nm] 0.6 – 1.3, parental cells HEKT
[3] = molecular target: Alpha-1D adrenergic receptor (Homo sapiens, UniProt P25100); assay: GPCRScan assay: inhibition of Alpha1D; design: radioligand conc. used [nm] 0.3 – 1.0, parental cells stable
[4] = molecular target: Dual specificity protein kinase CLK2 (Homo sapiens, UniProt P49760); assay: NanoBRET (SGC Frankfurt) (CLK2)
[5] = molecular target: Sigma non-opioid intracellular receptor 1 (Homo sapiens, UniProt Q99720); assay: GPCRScan assay: inhibition of Sigma 1; design: radioligand conc. used [nm] 4.0 – 5.0, parental cells HEKT
[6] = molecular target: 5-hydroxytryptamine receptor 1A (Homo sapiens, UniProt P08908); assay: GPCRScan assay: inhibition of 5-HT1A; design: radioligand conc. used [nm] 0.5 – 1.0, parental cells stable CHO
[7] = molecular target: Beta-3 adrenergic receptor (Homo sapiens, UniProt P13945); assay: GPCRScan assay: inhibition of Beta3; design: radioligand conc. used [nm] 0.2 – 0.5, parental cells HEK Flp-In
D(2) dopamine receptor = D(2) dopamine receptor (Homo sapiens, UniProt P14416); assay: GPCRScan assay: inhibition of D2; design: radioligand conc. used [nm] 0.4 – 1.0, parental cells stable fibroblast
[8] = molecular target: Alpha-2A adrenergic receptor (Homo sapiens, UniProt P08913); assay: GPCRScan assay: inhibition of Alpha2A; design: radioligand conc. used [nm] 1.0 – 3.0, parental cells stable MDCK
[9] = molecular target: 5-hydroxytryptamine receptor 2C (Homo sapiens, UniProt P28335); assay: GPCRScan assay: inhibition of 5-HT2C; design: radioligand conc. used [nm] 1.0 – 2.5, parental cells HEK T
[10] = molecular target: AMP-activated protein kinase (AMPK) alpha-1/beta-1/gamma-1 (Homo sapiens) (UniProt P54619+Q9Y478+Q13131); assay: AMPK A1/B1/G1 Kinase activity screen; assay type: protein-complex assay
[11] = molecular target: Serine/threonine-protein kinase Chk1 (Homo sapiens) (UniProt O14757); assay: CHEK1 (CHK1) Kinase activity screen
[12] = molecular target: Ribosomal protein S6 kinase beta-1 (Homo sapiens) (UniProt P23443); assay: RPS6KB1 (p70S6K) Kinase activity screen
[13] = molecular target: Aurora kinase A (Homo sapiens) (UniProt O14965); assay: AURKA (Aurora A) Kinase activity screen
[14] = molecular target: Glycogen synthase kinase-3 beta (Homo sapiens) (UniProt P49841); assay: GSK3B (GSK3 beta) Kinase activity screen
[15] = molecular target: Cyclin-dependent kinase 1/cyclin B (Homo sapiens) (UniProt P06493+P14635+Q8WWL7+O95067); assay: CDK1/cyclin B Kinase activity screen; assay type: protein-complex assay
[16] = molecular target: RAC-alpha serine/threonine-protein kinase (Homo sapiens) (UniProt P31749); assay: AKT1 (PKB alpha) Kinase activity screen; conditions: Compound concentration 0.1 uM
[17] = molecular target: Protein kinase C theta type (Homo sapiens) (UniProt Q04759); assay: PRKCQ (PKC theta) Kinase activity screen
[18] = molecular target: Homeodomain-interacting protein kinase 2 (Homo sapiens) (UniProt Q9H2X6); assay: HIPK2 Kinase activity screen
[19] = molecular target: Dual specificity tyrosine-phosphorylation-regulated kinase 1B (Homo sapiens, UniProt Q9Y463); assay: DYRK1B Kinase activity screen
[20] = molecular target: Inhibitor of nuclear factor kappa-B kinase subunit beta (Homo sapiens) (UniProt O14920); assay: IKBKB (IKK beta) Kinase activity screen
[21] = molecular target: Focal adhesion kinase 1 (Homo sapiens) (UniProt Q05397); assay: PTK2 (FAK) Kinase activity screen
[22] = molecular target: PI3-kinase p110-alpha/p85-alpha (Homo sapiens) (UniProt P27986+P42336); assay: PIK3CA/PIK3R1 (p110 alpha/p85 alpha) Kinase activity screen; assay type: protein-complex assay
[23] = molecular target: Serine/threonine-protein kinase Chk2 (Homo sapiens) (UniProt O96017); assay: CHEK2 (CHK2) Kinase activity screen
[24] = molecular target: Mitogen-activated protein kinase 3 (Homo sapiens) (UniProt P27361); assay: MAPK3 (ERK1) Kinase activity screen
[25] = molecular target: Dual specificity tyrosine-phosphorylation-regulated kinase 1A (Homo sapiens, UniProt Q13627); assay: DYRK1A Kinase activity screen
[26] = molecular target: Dual specificity tyrosine-phosphorylation-regulated kinase 3 (Homo sapiens) (UniProt O43781); assay: DYRK3 Kinase activity screen
[27] = molecular target: Casein kinase I isoform alpha (Homo sapiens) (UniProt P48729); assay: CSNK1A1 (CK1 alpha 1) Kinase activity screen
[28] = molecular target: Mitogen-activated protein kinase 9 (Homo sapiens) (UniProt P45984); assay: MAPK9 (JNK2) Kinase activity screen
[29] = molecular target: Tyrosine-protein kinase JAK2 (Homo sapiens) (UniProt O60674); assay: JAK2 Kinase activity screen
[30] = molecular target: Casein kinase I isoform delta (Homo sapiens) (UniProt P48730); assay: CSNK1D (CK1 delta) Kinase activity screen
[31] = molecular target: Proto-oncogene tyrosine-protein kinase Src (Homo sapiens) (UniProt P12931); assay: SRC Kinase activity screen
[32] = molecular target: Dual specificity mitogen-activated protein kinase kinase 2 (Homo sapiens) (UniProt P36507); assay: MAP2K2 (MEK2) Kinase activity screen
[33] = molecular target: Serine/threonine-protein kinase mTOR (Homo sapiens) (UniProt P42345); assay: FRAP1 (mTOR) Kinase activity screen
[34] = molecular target: Serine/threonine-protein kinase Nek2 (Homo sapiens) (UniProt P51955); assay: NEK2 Kinase activity screen
[35] = molecular target: Serine/threonine-protein kinase PLK1 (Homo sapiens) (UniProt P53350); assay: PLK1 Kinase activity screen
[36] = molecular target: Fibroblast growth factor receptor 1 (Homo sapiens) (UniProt P11362); assay: FGFR1 Kinase activity screen
[37] = molecular target: Cyclin-dependent kinase 5/CDK5 activator 1 (Homo sapiens) (UniProt Q00535+Q15078); assay: CDK5/p25 Kinase activity screen; assay type: protein-complex assay
[38] = Compound concentration 0.123 uM

Chain of AMP-activated protein kinase (AMPK) alpha-1/beta-1/gamma-1 (Homo sapiens) (P54619 whole entry): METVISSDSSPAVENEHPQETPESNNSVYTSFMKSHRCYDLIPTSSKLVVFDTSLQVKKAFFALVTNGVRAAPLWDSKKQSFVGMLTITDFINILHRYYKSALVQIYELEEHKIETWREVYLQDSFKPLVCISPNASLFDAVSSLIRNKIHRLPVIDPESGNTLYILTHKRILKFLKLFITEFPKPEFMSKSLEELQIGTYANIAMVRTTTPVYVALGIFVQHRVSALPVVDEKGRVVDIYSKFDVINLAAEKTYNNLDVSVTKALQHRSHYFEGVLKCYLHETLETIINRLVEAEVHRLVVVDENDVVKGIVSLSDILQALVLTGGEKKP
Chain of AMP-activated protein kinase (AMPK) alpha-1/beta-1/gamma-1 (Homo sapiens) (Q13131 whole entry partner): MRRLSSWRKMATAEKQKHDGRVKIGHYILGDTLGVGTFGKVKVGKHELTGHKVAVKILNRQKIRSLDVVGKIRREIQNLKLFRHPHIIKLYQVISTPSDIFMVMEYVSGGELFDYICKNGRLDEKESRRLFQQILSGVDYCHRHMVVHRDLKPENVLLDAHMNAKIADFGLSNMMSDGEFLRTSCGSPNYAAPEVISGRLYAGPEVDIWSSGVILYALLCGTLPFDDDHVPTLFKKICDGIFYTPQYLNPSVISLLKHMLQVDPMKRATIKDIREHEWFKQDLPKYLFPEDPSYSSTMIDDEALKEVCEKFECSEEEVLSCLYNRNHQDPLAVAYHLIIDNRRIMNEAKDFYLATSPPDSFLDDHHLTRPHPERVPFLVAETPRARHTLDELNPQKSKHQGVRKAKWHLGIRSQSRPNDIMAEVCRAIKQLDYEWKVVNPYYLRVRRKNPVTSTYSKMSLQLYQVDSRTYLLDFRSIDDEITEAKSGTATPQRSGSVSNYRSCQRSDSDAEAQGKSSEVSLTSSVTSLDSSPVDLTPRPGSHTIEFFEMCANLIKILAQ
Chain of AMP-activated protein kinase (AMPK) alpha-1/beta-1/gamma-1 (Homo sapiens) (Q9Y478 2-270 partner limits assumed): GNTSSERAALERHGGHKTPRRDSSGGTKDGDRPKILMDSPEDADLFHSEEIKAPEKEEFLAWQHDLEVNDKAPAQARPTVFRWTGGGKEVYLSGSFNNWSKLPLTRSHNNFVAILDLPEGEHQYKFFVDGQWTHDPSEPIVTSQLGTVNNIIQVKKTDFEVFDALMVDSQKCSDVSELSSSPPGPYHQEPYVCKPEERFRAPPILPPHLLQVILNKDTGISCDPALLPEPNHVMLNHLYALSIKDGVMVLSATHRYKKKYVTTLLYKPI
Chain of Focal adhesion kinase 1 (Homo sapiens) (Q05397 2-1052 limits assumed): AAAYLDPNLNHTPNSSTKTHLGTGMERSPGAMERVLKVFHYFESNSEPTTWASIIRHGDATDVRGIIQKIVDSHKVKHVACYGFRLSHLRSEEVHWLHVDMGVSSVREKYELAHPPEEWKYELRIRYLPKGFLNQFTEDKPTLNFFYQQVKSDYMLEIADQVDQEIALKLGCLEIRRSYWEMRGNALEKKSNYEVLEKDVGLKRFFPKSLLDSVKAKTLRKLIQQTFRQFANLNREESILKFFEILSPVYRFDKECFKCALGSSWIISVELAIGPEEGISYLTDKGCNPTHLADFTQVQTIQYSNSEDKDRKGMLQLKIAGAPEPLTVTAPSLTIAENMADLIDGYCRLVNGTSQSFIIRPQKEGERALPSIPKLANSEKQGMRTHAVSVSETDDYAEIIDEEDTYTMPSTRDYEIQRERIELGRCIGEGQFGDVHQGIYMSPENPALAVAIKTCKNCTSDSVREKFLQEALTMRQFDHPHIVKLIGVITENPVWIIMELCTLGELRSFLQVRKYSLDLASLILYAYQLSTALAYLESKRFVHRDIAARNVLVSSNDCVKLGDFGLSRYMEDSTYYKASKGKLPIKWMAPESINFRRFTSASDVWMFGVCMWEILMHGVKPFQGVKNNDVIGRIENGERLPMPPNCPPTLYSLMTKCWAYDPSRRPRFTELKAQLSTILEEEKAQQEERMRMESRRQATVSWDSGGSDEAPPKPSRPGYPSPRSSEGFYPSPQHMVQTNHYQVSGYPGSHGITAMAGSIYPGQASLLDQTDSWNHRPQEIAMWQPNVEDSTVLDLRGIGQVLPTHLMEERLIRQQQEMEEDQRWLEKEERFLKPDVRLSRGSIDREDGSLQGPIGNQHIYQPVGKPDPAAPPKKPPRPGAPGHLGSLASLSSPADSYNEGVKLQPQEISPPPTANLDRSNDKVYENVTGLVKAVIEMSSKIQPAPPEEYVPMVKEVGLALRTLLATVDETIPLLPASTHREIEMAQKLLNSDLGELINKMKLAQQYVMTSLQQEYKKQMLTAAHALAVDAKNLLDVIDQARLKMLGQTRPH
Chain of Serine/threonine-protein kinase PLK1 (Homo sapiens) (P53350 whole entry): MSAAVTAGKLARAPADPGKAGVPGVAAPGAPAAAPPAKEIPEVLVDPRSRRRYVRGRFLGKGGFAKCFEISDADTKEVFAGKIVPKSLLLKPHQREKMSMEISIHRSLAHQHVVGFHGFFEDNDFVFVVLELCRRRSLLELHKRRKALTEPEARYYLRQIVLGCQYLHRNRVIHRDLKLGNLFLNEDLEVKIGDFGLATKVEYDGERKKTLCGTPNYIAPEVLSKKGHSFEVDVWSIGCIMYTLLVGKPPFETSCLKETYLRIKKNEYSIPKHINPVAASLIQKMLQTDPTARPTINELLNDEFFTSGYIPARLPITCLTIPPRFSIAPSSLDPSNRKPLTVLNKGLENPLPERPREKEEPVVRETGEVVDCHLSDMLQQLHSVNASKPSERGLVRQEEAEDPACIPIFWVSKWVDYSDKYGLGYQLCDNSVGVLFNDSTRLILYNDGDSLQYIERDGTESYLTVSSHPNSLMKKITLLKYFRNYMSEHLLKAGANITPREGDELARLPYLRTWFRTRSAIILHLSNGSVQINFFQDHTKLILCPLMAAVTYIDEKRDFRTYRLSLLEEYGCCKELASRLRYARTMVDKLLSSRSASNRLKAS
Chain of Inhibitor of nuclear factor kappa-B kinase subunit beta (Homo sapiens) (O14920 whole entry): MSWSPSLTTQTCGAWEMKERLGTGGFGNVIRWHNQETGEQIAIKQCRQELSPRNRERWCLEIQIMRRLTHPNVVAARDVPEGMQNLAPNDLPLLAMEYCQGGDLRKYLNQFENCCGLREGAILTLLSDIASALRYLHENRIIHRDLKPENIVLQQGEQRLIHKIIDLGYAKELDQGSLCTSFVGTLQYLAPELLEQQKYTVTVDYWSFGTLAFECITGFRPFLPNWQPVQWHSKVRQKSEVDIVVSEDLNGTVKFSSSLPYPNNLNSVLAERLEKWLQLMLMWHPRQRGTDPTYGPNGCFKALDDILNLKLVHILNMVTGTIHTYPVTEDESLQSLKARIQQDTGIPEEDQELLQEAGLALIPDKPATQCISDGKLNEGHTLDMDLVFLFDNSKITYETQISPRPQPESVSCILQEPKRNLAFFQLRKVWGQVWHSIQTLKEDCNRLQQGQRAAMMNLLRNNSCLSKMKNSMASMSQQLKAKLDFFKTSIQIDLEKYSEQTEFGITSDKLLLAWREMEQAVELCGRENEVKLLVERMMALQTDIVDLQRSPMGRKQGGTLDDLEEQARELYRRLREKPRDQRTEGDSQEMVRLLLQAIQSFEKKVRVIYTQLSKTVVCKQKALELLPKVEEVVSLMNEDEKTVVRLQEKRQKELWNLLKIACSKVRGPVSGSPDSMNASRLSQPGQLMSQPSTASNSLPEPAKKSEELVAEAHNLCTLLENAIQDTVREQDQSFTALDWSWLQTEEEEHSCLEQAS
Chain of Mitogen-activated protein kinase 3 (Homo sapiens) (P27361 whole entry): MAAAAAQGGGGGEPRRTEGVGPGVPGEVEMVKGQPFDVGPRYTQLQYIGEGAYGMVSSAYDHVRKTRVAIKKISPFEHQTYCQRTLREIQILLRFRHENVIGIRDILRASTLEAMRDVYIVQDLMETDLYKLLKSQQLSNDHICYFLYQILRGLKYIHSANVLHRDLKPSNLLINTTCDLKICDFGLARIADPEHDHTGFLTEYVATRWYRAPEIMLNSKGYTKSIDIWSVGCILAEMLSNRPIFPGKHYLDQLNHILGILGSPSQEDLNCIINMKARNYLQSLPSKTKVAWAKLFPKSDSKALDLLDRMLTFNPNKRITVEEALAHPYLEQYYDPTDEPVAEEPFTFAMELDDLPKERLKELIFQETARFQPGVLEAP
Chain of Mitogen-activated protein kinase 9 (Homo sapiens) (P45984 whole entry, looked up): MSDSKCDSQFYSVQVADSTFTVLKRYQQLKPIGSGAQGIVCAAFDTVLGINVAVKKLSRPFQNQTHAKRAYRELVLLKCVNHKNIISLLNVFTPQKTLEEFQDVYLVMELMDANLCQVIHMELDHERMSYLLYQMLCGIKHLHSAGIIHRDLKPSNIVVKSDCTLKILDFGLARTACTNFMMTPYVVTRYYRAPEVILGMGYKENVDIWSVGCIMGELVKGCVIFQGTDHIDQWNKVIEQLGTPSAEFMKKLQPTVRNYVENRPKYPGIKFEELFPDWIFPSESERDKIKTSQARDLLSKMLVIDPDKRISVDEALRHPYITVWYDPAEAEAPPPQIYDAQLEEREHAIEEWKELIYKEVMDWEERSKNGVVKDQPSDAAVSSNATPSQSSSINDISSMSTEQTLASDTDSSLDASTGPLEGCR
Chain of Sigma non-opioid intracellular receptor 1 (Q99720 whole entry): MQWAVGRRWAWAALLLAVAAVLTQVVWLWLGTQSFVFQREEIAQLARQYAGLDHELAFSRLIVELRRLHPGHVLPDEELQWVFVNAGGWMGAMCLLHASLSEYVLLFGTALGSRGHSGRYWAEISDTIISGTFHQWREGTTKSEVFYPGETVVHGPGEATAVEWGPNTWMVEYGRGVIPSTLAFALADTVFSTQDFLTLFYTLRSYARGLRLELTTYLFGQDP
Chain of Aurora kinase A (Homo sapiens) (O14965 whole entry): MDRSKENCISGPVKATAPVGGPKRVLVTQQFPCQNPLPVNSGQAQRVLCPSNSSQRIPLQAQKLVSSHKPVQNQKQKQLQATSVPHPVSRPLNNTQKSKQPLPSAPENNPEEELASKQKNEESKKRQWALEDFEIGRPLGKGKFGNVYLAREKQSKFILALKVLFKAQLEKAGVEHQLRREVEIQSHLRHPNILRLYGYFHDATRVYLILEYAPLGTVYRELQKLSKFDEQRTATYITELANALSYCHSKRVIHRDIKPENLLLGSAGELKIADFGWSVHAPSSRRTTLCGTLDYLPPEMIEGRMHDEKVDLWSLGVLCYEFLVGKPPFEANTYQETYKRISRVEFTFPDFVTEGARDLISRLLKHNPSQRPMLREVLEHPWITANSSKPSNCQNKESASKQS

For `CN1CCN(C(=O)C(C)(C)c2ccc(C(=O)Nc3cn4cc(-c5cc(C(C)(C)C)cc(C(C)(C)C)c5)ccc4n3)cc2)CC1` [T3-CLK-N], the Ki [1] was 2.17 µM, the Ki [2] was > 10 µM and the pKi [2] was < 5. The Ki (D(1A) dopamine receptor; read-out: Ki) was 1.5 µM, the Ki (D(1A) dopamine receptor; read-out: pKi (converted)) was 1.29 µM and the Ki [3] was 1.45 µM. For the same compound, the IC50 [4] was > 10 µM (not active), the Ki ([5]; read-out: Ki) was 0.798 µM and the Ki ([5]; read-out: pKi (converted)) was 0.741 µM. For the same compound, the Ki [6] was 2.56 µM, the Ki [7] was > 10 µM and the pKi [7] was < 5. For the same compound, the Ki (D(2) dopamine receptor; read-out: Ki) was 2.75 µM, the Ki (D(2) dopamine receptor; read-out: pKi (converted)) was 2.34 µM and the Ki [8] was 2.66 µM. For the same compound, the Ki ([9]; read-out: Ki) was 1.07 µM and the Ki ([9]; read-out: pKi (converted)) was 1.05 µM.
Compound `CN1CCN(C(=O)C(C)(C)c2ccc(C(=O)Nc3cn4cc(-c5ccncc5)ccc4n3)cc2)CC1` [T3-CLK] has an inhibition ([10]; Compound concentration 0.1 uM) of -2%, an inhibition ([10]; Compound concentration 1.0 uM) of 0.493% and an inhibition ([11]; Compound concentration 0.1 uM) of 9.74%. The inhibition ([11]; Compound concentration 1.0 uM) was 18.4%, the inhibition ([12]; Compound concentration 0.1 uM) was 2.21% and the inhibition ([12]; Compound concentration 1.0 uM) was 0.698%. For the same compound, the inhibition ([13]; Compound concentration 0.1 uM) was 4.51%, the inhibition ([13]; Compound concentration 1.0 uM) was 8.55% and the inhibition ([14]; Compound concentration 0.1 uM) was -3.21%. It also gave an inhibition ([14]; Compound concentration 1.0 uM) of -3.11%, an inhibition ([15]; Compound concentration 0.1 uM) of 7.95% and an inhibition ([15]; Compound concentration 1.0 uM) of 7.1%. For the same compound, the inhibition [16] was -8.24%, the inhibition ([17]; Compound concentration 0.1 uM) was 5.46% and the inhibition ([17]; Compound concentration 1.0 uM) was 4.24%. It also gave an inhibition ([18]; Compound concentration 0.1 uM) of -3.6%, an inhibition ([18]; Compound concentration 1.0 uM) of -1.82% and an inhibition [19, 38] of 62.7%. The inhibition ([19]; Compound concentration 1.11 uM) was 94.1%, the inhibition ([20]; Compound concentration 0.1 uM) was -6.12% and the inhibition ([20]; Compound concentration 1.0 uM) was -4.71%. It also gave an inhibition ([21]; Compound concentration 0.1 uM) of -9.12%, an inhibition ([21]; Compound concentration 1.0 uM) of -7.35% and an inhibition ([22]; Compound concentration 0.1 uM) of 3.58%. The inhibition ([22]; Compound concentration 1.0 uM) was 3.6%, the inhibition ([23]; Compound concentration 0.1 uM) was 21.9% and the inhibition ([23]; Compound concentration 1.0 uM) was 24.2%. The inhibition ([24]; Compound concentration 0.1 uM) was 5.63%, the inhibition ([24]; Compound concentration 1.0 uM) was 6.05% and the inhibition [25, 38] was 74.2%. The inhibition ([25]; Compound concentration 1.11 uM) was 97.5%, the inhibition [26, 38] was -1.82% and the inhibition ([26]; Compound concentration 1.11 uM) was 3.7%. For the same compound, the inhibition ([27]; Compound concentration 0.1 uM) was -3.75%, the inhibition ([27]; Compound concentration 1.0 uM) was -2.73% and the inhibition ([28]; Compound concentration 0.1 uM) was 3.18%. For the same compound, the inhibition ([28]; Compound concentration 1.0 uM) was -1.48%, the inhibition ([29]; Compound concentration 0.1 uM) was -7.35% and the inhibition ([29]; Compound concentration 1.0 uM) was -6.29%. For the same compound, the inhibition ([30]; Compound concentration 0.1 uM) was -2.92%, the inhibition ([30]; Compound concentration 1.0 uM) was 4.31% and the inhibition ([31]; Compound concentration 0.1 uM) was 13.2%. It also gave an inhibition ([31]; Compound concentration 1.0 uM) of 46.7%, an inhibition ([32]; Compound concentration 0.1 uM) of 16.9% and an inhibition ([32]; Compound concentration 1.0 uM) of 13.8%. The inhibition ([33]; Compound concentration 0.1 uM) was -5.58%, the inhibition ([33]; Compound concentration 1.0 uM) was -8.53% and the inhibition ([34]; Compound concentration 0.1 uM) was 11.9%. It also gave an inhibition ([34]; Compound concentration 1.0 uM) of 24.3%, an inhibition ([35]; Compound concentration 0.1 uM) of 7.85% and an inhibition ([35]; Compound concentration 1.0 uM) of 2.48%. The inhibition ([36]; Compound concentration 0.1 uM) was 4.26%, the inhibition ([36]; Compound concentration 1.0 uM) was 9.19% and the inhibition ([37]; Compound concentration 0.1 uM) was 1.84%. The inhibition ([37]; Compound concentration 1.0 uM) was 0.79%.
